Experimental data reported in the NIST ThermoML archive (doi:10.1016/j.fluid.2007.06.001).

What was measured:
[1] = excess molar enthalpy (molar enthalpy of mixing); xn = mol fraction of the nth substance listed; conditions: Liquid
[2] = Liquid

CCCC[n+]1ccn(C)c1.O=S(=O)([N-]S(=O)(=O)C(F)(F)F)C(F)(F)F + CC1CCCCC1
[1], 363.15 K, 101.3 kPa
Conditions | excess molar enthalpy [kcal/mol]
x2 = 0.1067 | 0.111
x2 = 0.2014 | 0.148
x2 = 0.2449 | 0.143
x2 = 0.286 | 0.137
x2 = 0.3621 | 0.123
x2 = 0.4308 | 0.111
x2 = 0.4932 | 0.099
x2 = 0.6022 | 0.0773
x2 = 0.6942 | 0.0587
x2 = 0.773 | 0.0439
x2 = 0.872 | 0.0258

CCCCCC[n+]1ccn(C)c1.O=S(=O)([N-]S(=O)(=O)C(F)(F)F)C(F)(F)F + CC(C)=O
[1], 353.15 K, 101 kPa
Conditions | excess molar enthalpy [kcal/mol]
x2 = 0.02 | -0.0107
x2 = 0.0499 | -0.0253
x2 = 0.0999 | -0.0512
x2 = 0.1498 | -0.0795
x2 = 0.1998 | -0.106
x2 = 0.2997 | -0.158
x2 = 0.3996 | -0.202
x2 = 0.4996 | -0.239
x2 = 0.5996 | -0.26
x2 = 0.6997 | -0.268
x2 = 0.7998 | -0.25
x2 = 0.8999 | -0.182
x2 = 0.9499 | -0.117

CCCC[n+]1ccn(C)c1.O=S(=O)([N-]S(=O)(=O)C(F)(F)F)C(F)(F)F + CC(C)=O
[1], 353.15 K, 101 kPa
Conditions | excess molar enthalpy [kcal/mol]
x2 = 0.05 | -0.031
x2 = 0.0999 | -0.0608
x2 = 0.1499 | -0.092
x2 = 0.1999 | -0.122
x2 = 0.2998 | -0.175
x2 = 0.4498 | -0.248
x2 = 0.5998 | -0.291
x2 = 0.6998 | -0.296
x2 = 0.7999 | -0.265
x2 = 0.8499 | -0.235
x2 = 0.8999 | -0.186
x2 = 0.95 | -0.118

CCCCCC[n+]1ccn(C)c1.O=S(=O)([N-]S(=O)(=O)C(F)(F)F)C(F)(F)F + CCC(C)=O
[1], 353.15 K, 101 kPa
Conditions | excess molar enthalpy [kcal/mol]
x2 = 0.02 | -0.0125
x2 = 0.05 | -0.0296
x2 = 0.1 | -0.0578
x2 = 0.15 | -0.0902
x2 = 0.2001 | -0.12
x2 = 0.3001 | -0.17
x2 = 0.4001 | -0.215
x2 = 0.5001 | -0.25
x2 = 0.6001 | -0.274
x2 = 0.7001 | -0.278
x2 = 0.8001 | -0.255
x2 = 0.9 | -0.181
x2 = 0.95 | -0.114

CCCC[n+]1ccn(C)c1.O=S(=O)([N-]S(=O)(=O)C(F)(F)F)C(F)(F)F + CCC(C)=O
[1], 353.15 K, 101 kPa
Conditions | excess molar enthalpy [kcal/mol]
x2 = 0.0508 | -0.0292
x2 = 0.1015 | -0.0592
x2 = 0.1521 | -0.0906
x2 = 0.2026 | -0.118
x2 = 0.3035 | -0.172
x2 = 0.4541 | -0.239
x2 = 0.6039 | -0.282
x2 = 0.7034 | -0.289
x2 = 0.8026 | -0.259
x2 = 0.8521 | -0.229
x2 = 0.9015 | -0.181
x2 = 0.9508 | -0.112

CCCCCC[n+]1ccn(C)c1.O=S(=O)([N-]S(=O)(=O)C(F)(F)F)C(F)(F)F + CCCCCC
[1], 363.15 K, 101 kPa
Conditions | excess molar enthalpy [kcal/mol]
x2 = 0.02 | 0.0124
x2 = 0.0501 | 0.035
x2 = 0.1002 | 0.073
x2 = 0.1503 | 0.104
x2 = 0.2003 | 0.123
x2 = 0.3003 | 0.126
x2 = 0.4004 | 0.107
x2 = 0.5004 | 0.0878
x2 = 0.6004 | 0.0711
x2 = 0.7003 | 0.0511
x2 = 0.8002 | 0.0328
x2 = 0.9001 | 0.0157
x2 = 0.9501 | 0.00801

CCCC[n+]1ccn(C)c1.O=S(=O)([N-]S(=O)(=O)C(F)(F)F)C(F)(F)F + CCCCCC
[1], 363.15 K, 101.3 kPa
Conditions | excess molar enthalpy [kcal/mol]
x2 = 0.02 | 0.0134
x2 = 0.0501 | 0.0353
x2 = 0.1002 | 0.0689
x2 = 0.1503 | 0.0949
x2 = 0.2003 | 0.109
x2 = 0.3004 | 0.0941
x2 = 0.5004 | 0.0662
x2 = 0.7004 | 0.038
x2 = 0.9002 | 0.0116

CCn1cc[n+](C)c1.O=S(=O)([N-]S(=O)(=O)C(F)(F)F)C(F)(F)F + CCCCCC
[1], 353.15 K, 101.3 kPa
Conditions | excess molar enthalpy [kcal/mol]
x2 = 0.0239 | 0.0297
x2 = 0.0472 | 0.0535
x2 = 0.07 | 0.066
x2 = 0.0923 | 0.0787
x2 = 0.1354 | 0.0756
x2 = 0.2162 | 0.0688
x2 = 0.3916 | 0.0521
x2 = 0.6588 | 0.0288
x2 = 0.8528 | 0.0125

CCn1cc[n+](C)c1.O=S(=O)([N-]S(=O)(=O)C(F)(F)F)C(F)(F)F + CCCO
[1], 323.15 K, 101.3 kPa
Conditions | excess molar enthalpy [kcal/mol]
x2 = 0.0418 | 0.0767
x2 = 0.0812 | 0.15
x2 = 0.1536 | 0.27
x2 = 0.277 | 0.451
x2 = 0.4629 | 0.626
x2 = 0.6741 | 0.623
x2 = 0.8082 | 0.488
x2 = 0.9602 | 0.151

CCCCCC[n+]1ccn(C)c1.O=S(=O)([N-]S(=O)(=O)C(F)(F)F)C(F)(F)F + CCO
[1], 353.15 K, 101 kPa
Conditions | excess molar enthalpy [kcal/mol]
x2 = 0.0506 | 0.0647
x2 = 0.1012 | 0.132
x2 = 0.1517 | 0.202
x2 = 0.2022 | 0.269
x2 = 0.4534 | 0.51
x2 = 0.6033 | 0.551
x2 = 0.9012 | 0.257
x2 = 0.9506 | 0.138

CCn1cc[n+](C)c1.O=S(=O)([N-]S(=O)(=O)C(F)(F)F)C(F)(F)F + CCO
[1], 323.15 K, 101.3 kPa
Conditions | excess molar enthalpy [kcal/mol]
x2 = 0.0529 | 0.0909
x2 = 0.1017 | 0.163
x2 = 0.1885 | 0.297
x2 = 0.3291 | 0.463
x2 = 0.5246 | 0.586
x2 = 0.7259 | 0.525
x2 = 0.8436 | 0.384
x2 = 0.9687 | 0.105

CCCCCC[n+]1ccn(C)c1.O=S(=O)([N-]S(=O)(=O)C(F)(F)F)C(F)(F)F + Cc1ccccc1
[1], 363.15 K, 101 kPa
Conditions | excess molar enthalpy [kcal/mol]
x2 = 0.0501 | -0.0218
x2 = 0.1001 | -0.0441
x2 = 0.1501 | -0.0645
x2 = 0.2002 | -0.0866
x2 = 0.3002 | -0.125
x2 = 0.4503 | -0.169
x2 = 0.6003 | -0.183
x2 = 0.7002 | -0.164
x2 = 0.8002 | -0.116
x2 = 0.8501 | -0.0868
x2 = 0.9001 | -0.0571
x2 = 0.9501 | -0.0288

CCCC[n+]1ccn(C)c1.O=S(=O)([N-]S(=O)(=O)C(F)(F)F)C(F)(F)F + Cc1ccccc1
[1], 363.15 K, 101 kPa
Conditions | excess molar enthalpy [kcal/mol]
x2 = 0.0653 | -0.023
x2 = 0.1255 | -0.0435
x2 = 0.1811 | -0.0624
x2 = 0.2325 | -0.0772
x2 = 0.2803 | -0.0908
x2 = 0.3249 | -0.101
x2 = 0.4054 | -0.122
x2 = 0.4761 | -0.133
x2 = 0.5389 | -0.139
x2 = 0.6451 | -0.135
x2 = 0.7317 | -0.108
x2 = 0.8035 | -0.0824
x2 = 0.8911 | -0.0447
x2 = 0.9608 | -0.0171

CCCCCC[n+]1ccn(C)c1.O=S(=O)([N-]S(=O)(=O)C(F)(F)F)C(F)(F)F + c1ccccc1
[1], 363.15 K, 101 kPa
Conditions | excess molar enthalpy [kcal/mol]
x2 = 0.0854 | -0.0378
x2 = 0.1608 | -0.0698
x2 = 0.2279 | -0.0993
x2 = 0.288 | -0.12
x2 = 0.3421 | -0.142
x2 = 0.3912 | -0.163
x2 = 0.4765 | -0.191
x2 = 0.5482 | -0.21
x2 = 0.6094 | -0.214
x2 = 0.7082 | -0.206
x2 = 0.7845 | -0.183
x2 = 0.8452 | -0.138
x2 = 0.9161 | -0.0683
x2 = 0.9704 | -0.0212

CCCC[n+]1ccn(C)c1.O=S(=O)([N-]S(=O)(=O)C(F)(F)F)C(F)(F)F + c1ccccc1
[1], 101.3 kPa
Conditions | excess molar enthalpy [kcal/mol]
363.15 K, x2 = 0.0498 | -0.0235
363.15 K, x2 = 0.0997 | -0.0451
363.15 K, x2 = 0.1495 | -0.0678
363.15 K, x2 = 0.1994 | -0.0875
363.15 K, x2 = 0.2992 | -0.127
363.15 K, x2 = 0.4491 | -0.176
363.15 K, x2 = 0.5991 | -0.206
363.15 K, x2 = 0.6992 | -0.198
363.15 K, x2 = 0.7994 | -0.147
363.15 K, x2 = 0.8495 | -0.112
363.15 K, x2 = 0.8997 | -0.0716
363.15 K, x2 = 0.9498 | -0.0353
413.15 K, x2 = 0.1462 | -0.0688
413.15 K, x2 = 0.2087 | -0.0954
413.15 K, x2 = 0.2654 | -0.12
413.15 K, x2 = 0.3172 | -0.142
413.15 K, x2 = 0.3647 | -0.166
413.15 K, x2 = 0.4485 | -0.196
413.15 K, x2 = 0.5202 | -0.212
413.15 K, x2 = 0.5823 | -0.22
413.15 K, x2 = 0.6844 | -0.217
413.15 K, x2 = 0.7648 | -0.186
413.15 K, x2 = 0.8299 | -0.142
413.15 K, x2 = 0.907 | -0.0792
413.15 K, x2 = 0.967 | -0.0313

CCCCCCCCC [nonane]
Conditions | vapor or sublimation pressure [kPa]
[2], 353.15 K | 9.65

C=CCCCCCC [oct-1-ene]
Conditions | vapor or sublimation pressure [kPa]
[2], 363.15 K | 38.51

C=CCCCCCC [oct-1-ene] + CCCCCC[n+]1ccn(C)c1.O=S(=O)([N-]S(=O)(=O)C(F)(F)F)C(F)(F)F
[1], 413.15 K, 101 kPa
Conditions | excess molar enthalpy [kcal/mol]
x1 = 0.0504 | 0.0404
x1 = 0.0982 | 0.0729
x1 = 0.1437 | 0.102
x1 = 0.1869 | 0.131
x1 = 0.2281 | 0.142
x1 = 0.2675 | 0.141
x1 = 0.3409 | 0.13
x1 = 0.4082 | 0.116
x1 = 0.47 | 0.103
x1 = 0.5797 | 0.0815
x1 = 0.6742 | 0.0617
x1 = 0.7563 | 0.0472
x1 = 0.8613 | 0.0272

CCCCCCCC [octane]
Conditions | vapor or sublimation pressure [kPa]
[2], 353.15 K | 23.16

CCC(=O)CC [pentan-3-one] + CCCCCC[n+]1ccn(C)c1.O=S(=O)([N-]S(=O)(=O)C(F)(F)F)C(F)(F)F
[1], 353.15 K, 101 kPa
Conditions | excess molar enthalpy [kcal/mol]
x1 = 0.0503 | -0.0247
x1 = 0.1005 | -0.0527
x1 = 0.1507 | -0.0794
x1 = 0.2009 | -0.107
x1 = 0.3011 | -0.156
x1 = 0.4013 | -0.198
x1 = 0.5013 | -0.24
x1 = 0.6013 | -0.266
x1 = 0.7011 | -0.276
x1 = 0.8009 | -0.249
x1 = 0.9005 | -0.177
x1 = 0.9503 | -0.109
